Experimental data as given in doi:10.1101/2025.05.23.655777v1 (biorxiv, 2025).
pKi: −log10 of the molar value.

Target: GABA-AT; GABA aminotransferase 1 (recombinant) (Arabidopsis thaliana, UniProt Q94CE5)
Test: inhibition kinetics, LDH-coupled or HPLC assay, competitive fit
Type: biochemical

pKi: 3.38
Compound: N[C@@H](CS)C(=O)O [L-cysteine]
